From patent US10214507B2, “Carbazole-containing amides, carbamates, and ureas as cryptochrome modulators” (Reset Therapeutics, Inc., priority 2014, dated 2019)
Like-named read-outs stand apart in the source and are kept apart here.

Columns and labels:
[1] = tested on: core clock gene mRNAs in mouse liver; test: Core clock gene mRNAs in liver after a single dose at peak or nadir of Cry1 expression; assay type: in vivo; conditions: single dose 50 mg/kg, liver 7.5 hours later
Method: For compounds that interact directly with the core clock mechanism, the time of dosing may be critical for maximizing their effects. […] The former (ZTO) is coincident with the peak of Cry1 and Bmal1 protein in mouse liver and the latter (ZT10) corresponds to the approximate nadir of Cry1 and Bmal1. Liver tissue was taken 7.5 hours later for each, and the samples were examined for core clock gene mRNAs by RT-qPCR.

[2] = 7 day dosing, glucose metabolism, insulin and compound levels in db/db mice; assay type: in vivo, mouse; conditions: male, mouse, around 8 hours after last dose, 50 mg/kg PO 7 days
From the text: (§1) Significance was accepted when p<0.05.

[3] = tested on: db/db mouse model of type II diabetes; test: as above; assay type: in vivo; conditions: 50 mg/kg PO 7 days
From the text: as §1

[4] = tested on: Dbp mRNA in whole blood of db/db mice; test: Dbp mRNA in whole blood of db/db mice after three daily doses; assay type: in vivo, mouse; conditions: 100 mg/kg PO once daily 3 days, ZT7.5
Method: For whole blood RNA studies, male db/db mice (9 weeks of age, The Jackson Laboratory, Bar Harbor, Me.) were used for the experiment with n=8 mice for each experimental group. […] On the final day at ZT7.5 (2:30 pm), animals were euthanized using CO2 asphyxiation, and the blood collected from the heart via cardiac puncture. The blood was placed in RNALater solution to 1.5 ml total volume. Total RNA was prepared using an Ambion Mouse RiboPure Blood RNA Isolation Kit AM1951 as follows. Samples were centrifuged for 3 minutes, discarding the supernatant. Two ml of lysis solution was added and vortexed, transferred to a 15 ml tube followed by the addition of […]. Lysis buffer was added to a total volume of 3.8 ml and vortexed. The sample mixture was extracted with 1.5 ml Acid Phenol: Chloroform and the aqueous phase was recovered. After adding 0.5 volumes of 100% ethanol and vortexing, the samples were passed through a filter column provided in the kit and washed with 750 microliters of wash buffer 1. The filter was washed with 2 passes of 750 microliters wash buffer ⅔ and dried. RNA was eluted in 200 microliters of molecular biology grade water (RNase-free).
The levels of core clock gene mRNAs in whole blood may provide a non-invasive method of determining effects of compounds in treated subjects. […]

[5] = tested on: db/db mouse model of type II diabetes; test: Single dose at peak or nadir of clock gene expression, OGTT in db/db mice; assay type: in vivo
From the text: Mice were split into two study arms, to be dosed at either the peak or nadir of Cry1 and Bmal1 gene expression. […] Mice dosed at ZT10 were fasted beginning at 8:30 am in the same manner.
as §1

[6] = Pharmacokinetic analysis in SD rats (plasma, LC/MS/MS); assay type: in vivo, rat; conditions: 50 mg/kg P.O.; for Cmax: plasma, 50 mg/kg
Method: Male SD rats (weighing 250-300 g, Charles River Laboratories) were used for the experiment with n=4 rats for each experimental group. […] Blood was collected at the following time points after administration: 15, 30, 60, 90 minutes, 3, 6, 12 and 24 hours. A pre-dose sample was also collected. Animals were cannulated by technical staff at Charles River, prior to delivery at Reset. Whole blood (0.3 ml) was collected from a cannula in the right common jugular vein at each time-point. The whole blood was transferred to an EDTA tube, and then centrifuged at 5400 rpm for 5 minutes at 4° C. The resultant plasma was frozen using dry ice and then stored at −80° C. until ready for assay. 0.9% Sodium Chloride (0.3 ml) was administered for fluid replenishment after each blood draw. 0.1 ml of Sodium Heparin (500 IU/ml) was used as a lock solution after the 12 hr time-point. Samples were assayed as described above.

[7] = Increasing dosages of Compound 72 for 7 days in db/db mice; assay type: in vivo, mouse; conditions: male, mouse, oral, around 8 hours after last dose
From the text: as §1

[8] = tested on: db/db mouse model of type II diabetes; test: as above; assay type: in vivo
From the text: as §1

O=C1NCCN1CC(O)Cn1c2ccc(F)cc2c2cc(F)ccc21 (stereo not drawn) [Compound 72, 1-(3-(3,6-difluoro-9H-carbazol-9-yl)-2-hydroxypropyl)imidazolidin-2-one]
impact on clock mRNAs, dosing at peak (ZT0) vs nadir (ZT10) [1]: greater relative impact on the clock mRNAs at the peak compared to the nadir | concentration at 8 h ([2]; liver, read-out: compound level in liver): 670 nM | concentration at 8 h ([2]; plasma, read-out: compound level in plasma): 530 nM | HOMA-IR [3]: 93.69+/−23.60 units | fasting blood glucose (FBG) [3]: 385.0 ± 29.69 mg/dL | glucose AUC calculated from the OGTT [3]: 35942+/−3192 | plasma insulin at t=0 [3]: 3.78 ± 0.69 ng/mL | plasma insulin at t=2 hr ([3]; after glucose load): 2.53 ± 0.50 ng/mL | reduction of HOMA-IR ([3]; vs vehicle): 33% | reduction of insulin at t=0 ([3]; vs vehicle): 20% | reduction of insulin at t=2 hr ([3]; vs vehicle): 21% | Dbp gene expression in whole blood [4]: statistically significant suppression | effect on OGTT measurement, dosed at peak of Cry1 and Bmal1 expression ([5]; single dose 50 mg/kg PO at ZT0): apparent effect | effect on OGTT measurement, dosed at nadir ([5]; single dose 50 mg/kg PO at ZT10): no effect | glucose AUC calculated from the OGTT ([5]; single dose 50 mg/kg PO at peak (ZT0), mean+/-S.E.M.): 63842+/−4318 | reduction in glucose excursion (AUC) ([5]; single dose 50 mg/kg PO at peak (ZT0), vs vehicle): 14% | Tmax ([6]; male, SD, po, rat plasma): 1.7 h | half-life ([6]; male, SD, po, rat plasma, read-out: Elimination T1/2 (converted)): 1.87 h | MRT last ([6]; male, SD, po, rat plasma, read-out: MRT (0-last, hr)): 4.94 h | Cmax ([6]; male, SD, rat, po, rat plasma, read-out: Cmax): 7100 ng/mL | Cmax ([6]; male, SD, rat, po, rat, read-out: Cmax (plasma)): 7100 ng/mL | Cmax ([6]; male, SD, rat, po, rat, unbound, read-out: Cmax UB (plasma)): 277 ng/mL | % AUC extrapolated ([6]; rat plasma): 3.3% | AUC (total; ng · hr/mL) ([6]; rat plasma): 57952 ng·h/mL | Unbound Plasma AUC (0-last) ([6]; rat): 2259 | concentration at 8 h ([7]; liver, 10 mg/kg, read-out: compound level in liver): 120 nM | concentration at 8 h ([7]; liver, 50 mg/kg, read-out: compound level in liver): 780 nM | concentration at 8 h ([7]; liver, 100 mg/kg, read-out: compound level in liver): 1810 nM | concentration at 8 h ([7]; plasma, 10 mg/kg, read-out: compound level in plasma): 90 nM | concentration at 8 h ([7]; plasma, 50 mg/kg, read-out: compound level in plasma): 570 nM | concentration at 8 h ([7]; plasma, 100 mg/kg, read-out: compound level in plasma): 1220 nM | HOMA-IR ([8]; 10 mg/kg QD PO 7 days): 172.7+/−16.61 units | fasting blood glucose ([8]; 10 mg/kg QD PO 7 days): 503.5 ± 49.68 mg/dL | glucose AUC from OGTT ([8]; 10 mg/kg QD PO 7 days): 39771+/−4244 | HOMA-IR ([8]; 50 mg/kg QD PO 7 days): 149.2+/−16.49 units | fasting blood glucose ([8]; 50 mg/kg QD PO 7 days): 402.8 ± 25.25 mg/dL | glucose AUC from OGTT ([8]; 50 mg/kg QD PO 7 days): 35527+/−3215 | HOMA-IR ([8]; 100 mg/kg QD PO 7 days): 111.9+/−9.02 units | fasting blood glucose ([8]; 100 mg/kg QD PO 7 days): 420.7 ± 26.44 mg/dL | glucose AUC from OGTT ([8]; 100 mg/kg QD PO 7 days): 28499+/−3079 | plasma insulin at t=0 ([8]; 100 mg/kg QD PO 7 days): 4.63 ± 0.17 ng/mL | reduction of HOMA-IR compared to vehicle control ([8]; 100 mg/kg QD PO 7 days): 34%
